Results: patent publication US20160015619A1, “TRANSPARENT SOL, GEL COMPOSITION CONTAINING HIGH CONCENTRATIONS OF VITAMIN C AND VITAMIN C DERIVATIVE” (ABIO CO., LTD., priority 2013, published 2016)

Test: Anti-oxidation experiment (DPPH free radical removing capability)
Assay type: biochemical
Description: The free radical removing capability was experimented using the embodiment 4 in Table 5. In case of the DPPH (1,1-diphenyl-2-picrylhydrazyl) used, the radical removing capability of radical sample which changes colors depending on the changes in oxidation/reduction environment was confirmed through the measurements of the O.D. value.
In details, the DPPH experiment sample was prepared by inputting the solution of the embodiment 4 in Table 5 into each well of the 96-well plate by 100 μl. The DPPH was added by 10 μl, and the mixture was placed at a room temperature for 30 minutes, and the absorbance at 517 nm was measured using a micro plate reader. At this time, the solution prepared by adding 10% of the distilled water instead of vitamin C into the solution of the embodiment 4 and the pure vitamin C were used as a control group.

## O=C1O[C@H]([C@@H](O)CO)C(O)=C1O [Control group 2 (vitamin C), L-ascorbic acid]
  effect on the activation of the anti-oxidation (in words): high effect on the activation of the anti-oxidation
Room temperature 30 minutes, absorbance at 517 nm
  Activation (%) of anti-oxidation: 90.8%
